Test results published in patent US20150141336A1, “Pancreatic Peptide Compounds and Use” (Novo Nordisk A/S, priority 2012, published 2015).
Numbered stars: 1 amine (or outer) side, 2 acyl side, 3 side chain; on linkers, the order of the positions; unused ones are H or OH. Side chains are listed from the residue outwards. Peptide text beside a SMILES is read from it. * marks the point of attachment. C18 diacid = O=C(O)CCCCCCCCCCCCCCCCC(=O)*; γGlu = O=C(O)[C@H](CCC(=O)[*:2])N[*:1]; AEEA = NCCOCCOCC(=O)O

Assay: Assay (II) PK i.v. minipig, in vivo half-life
Parameters: species or system Göttingen mini-pigs
Conditions: male, Göttingen, minipig, iv
Procedure: An assay useful for measuring the pharmacokinetic (PK) profile of the PP peptide is the following mini-pig PK assay.
Five male Göttingen mini-pigs weighing approximately 18 to 22 kg from Ellegaard Göttingen Minipigs NS, Denmark are included in the study. The mini-pigs have two central venous catheters inserted which are used for intra venous (i.v.) dosing and blood sampling. The test compound is dissolved in 50 mM K2HPO4, 0.05% tween 80, pH=8.0 to a concentration of 180 nmol/ml. For comparison a control compound, such as human PP(1-36), may be administered. The pigs are dosed with 6 nmol test compound/kg body weight. Blood samples are taken at the following time points: pre-dose, 30 minutes, 1, 2, 4, 8, 24, 48, 72, 96, 120, 168 and 240 hours post dosing. The blood samples were collected into test tubes containing EDTA buffer for stabilization and kept on ice for max. 20 minutes before centrifugation. The centrifugation procedure to separate plasma may be: 4° C., approx. 2500 g for 10 minutes. Plasma is collected and immediately transferred to Micronic tubes stored at −20° C. until assayed.
The test compounds were assayed in plasma by Turbulent Flow Chromatography coupled to Liquid Chromatography with subsequent Tandem Mass Spectrometric Detection (TFC/LC/MS/MS). Positive mode ionization and Multiple Reaction Monitoring (MRM) of a multiple protonated species fragmented to a singly charged ion was employed for selectivity. The selectivity of the method allows multiple compounds to be quantified in one sample.
The concentrations of the test compound in samples of unknown concentration were calculated using the peak area as a function of amount. Calibration graphs based on plasma samples spiked with the analyte were constructed by regression analysis. Typical dynamic range for standard assay was 1-2000 nmol/I. The method performance was assured by co-assaying quality control (QC) samples in duplicate at three concentration levels.
Stock and working solutions of analytes were prepared in plasma and incubated by 37° C. for 1 hour.
Sample Preparation: 40.0 μl EDTA-plasma was added 160 μl 50% methanol, 1% formic acid, then vortexed and centrifuged at 16457 g at 4° C. for 20 minutes. The supernatant was transferred to a 96 well plate, plates incubated with 0.4% BSA, 37° C. for ½ hour. Injection volume was 25 μl.
The analysis was carried out on a Sciex API 3000 mass spectrometer (MDS/Sciex, Concord, ON, Canada) using a TurbolonSpray interface. The TFC/LC system consisted of two Flux Rheos 2000 quaternary pumps, a Cohesive VIM module (Cohesive Technologies, Franklin, Mass., USA) and a CTC LC/PAL auto sampler (CTC Analytics, Zingen, Switzerland). The centrifuge employed was a HettichMikro 22R (A. Hettich, Tuttlingen, Germany). For sample clean up a TurboFlow C8 column (0.5×50 mm) (Cohesive Technologies/Thermofisher) was used and the LC separation was done on a Proteo 4 μm column (2.0×50 mm) (Phenomenex, Torrance, Calif., USA). Eluents were isocratic and gradient combinations of methanol, acetonitril, Milli-Q water and formic acid.
Non-compartmental analysis (NCA): Plasma concentration-time profiles are analyzed by non-compartmental pharmacokinetics analysis (NCA) using WinNonlin Professional 5.0 (Pharsight Inc., Mountain View, Calif., USA). NCA is performed using the individual plasma concentration-time profiles from each animal.
For CC[C@H](C)[C@H](NC(=O)[C@H](Cc1ccc(O)cc1)NC(=O)[C@H](CCCNC(=N)N)NC(=O)[C@H](CCCNC(=N)N)NC(=O)[C@H](CC(C)C)NC(=O)[C@H](CC(=O)O)NC(=O)[C@H](C)NC(=O)[C@H](C)NC(=O)[C@H](Cc1ccc(O)cc1)NC(=O)[C@H](CCC(N)=O)NC(=O)[C@H](C)NC(=O)[C@H](CCSC)NC(=O)[C@H](CCC(N)=O)NC(=O)[C@H](CCC(=O)O)NC(=O)[C@@H]1CCCN1C(=O)[C@@H](NC(=O)[C@H](C)NC(=O)[C@H](CC(N)=O)NC(=O)[C@H](CC(=O)O)NC(=O)CNC(=O)[C@@H]1CCCN1C(=O)[C@H](Cc1ccc(O)cc1)NC(=O)[C@@H](NC(=O)[C@@H]1CCCN1C(=O)[C@H](CCC(=O)O)NC(=O)[C@H](CC(C)C)NC(=O)[C@@H]1CCCN1C(=O)COCCOCCNC(=O)COCCOCCNC(=O)CC[C@H](NC(=O)CCCCCCCCCCCCCCCCC(=O)O)C(=O)O)C(C)C)[C@@H](C)O)C(=O)N[C@@H](CC(N)=O)C(=O)N[C@@H](CCSC)C(=O)N[C@@H](CC(C)C)C(=O)N[C@H](C(=O)N[C@@H](CCCNC(=N)N)C(=O)N1CCC[C@H]1C(=O)N[C@@H](CCCNC(=N)N)C(=O)N[C@@H](Cc1ccc(O)cc1)C(N)=O)[C@@H](C)O [Compound AF], the “Half-life minipig, Assay (II)” value was 36 h.

Same assay, conditions: male, Göttingen, minipig, iv, Half-life minipig, Assay (II)
In the case of CC[C@H](C)[C@H](NC(=O)[C@H](Cc1ccc(O)cc1)NC(=O)[C@H](CCCNC(=N)N)NC(=O)[C@H](CCCNC(=N)N)NC(=O)[C@H](CC(C)C)NC(=O)[C@H](CC(=O)O)NC(=O)[C@H](C)NC(=O)[C@H](C)NC(=O)[C@H](Cc1ccc(O)cc1)NC(=O)[C@H](CCC(N)=O)NC(=O)[C@H](C)NC(=O)[C@H](CCSC)NC(=O)[C@H](CCC(N)=O)NC(=O)[C@H](CCC(=O)O)NC(=O)[C@@H]1CCCN1C(=O)[C@@H](NC(=O)[C@H](C)NC(=O)[C@H](CC(N)=O)NC(=O)[C@H](CC(=O)O)NC(=O)CNC(=O)[C@@H]1CCCN1C(=O)[C@H](Cc1ccc(O)cc1)NC(=O)[C@@H](NC(=O)[C@@H]1CCCN1C(=O)[C@H](CCC(=O)O)NC(=O)[C@H](CCCCNC(=O)COCCOCCNC(=O)COCCOCCNC(=O)CC[C@H](NC(=O)CCCCCCCCCCCCCCCCC(=O)O)C(=O)O)NC(=O)[C@@H]1CCCN1)C(C)C)[C@@H](C)O)C(=O)N[C@@H](CC(N)=O)C(=O)N[C@@H](CCSC)C(=O)N[C@@H](CC(C)C)C(=O)N[C@H](C(=O)N[C@@H](CCCNC(=N)N)C(=O)N1CCC[C@H]1C(=O)N[C@@H](CCCNC(=N)N)C(=O)N[C@@H](Cc1ccc(O)cc1)C(N)=O)[C@@H](C)O [Compound AE], the half-life was 45 h.
With CC[C@H](C)[C@H](NC(=O)[C@H](Cc1ccc(O)cc1)NC(=O)[C@H](CCCNC(=N)N)NC(=O)[C@H](CCCNC(=N)N)NC(=O)[C@H](CC(C)C)NC(=O)[C@H](CC(=O)O)NC(=O)[C@H](C)NC(=O)[C@H](C)NC(=O)[C@H](Cc1ccc(O)cc1)NC(=O)[C@H](CCC(N)=O)NC(=O)[C@H](C)NC(=O)[C@H](CCSC)NC(=O)[C@H](CCC(N)=O)NC(=O)[C@H](CCC(=O)O)NC(=O)[C@@H]1CCCN1C(=O)[C@@H](NC(=O)[C@H](C)NC(=O)[C@H](CC(N)=O)NC(=O)[C@H](CC(=O)O)NC(=O)CNC(=O)[C@@H]1CCCN1C(=O)[C@H](Cc1ccc(O)cc1)NC(=O)[C@@H](NC(=O)[C@@H]1CCCN1C(=O)[C@H](CCC(=O)O)NC(=O)[C@H](CC(C)C)NC(=O)[C@@H]1CCCN1C(=O)COCCOCCNC(=O)COCCOCCNC(=O)CC[C@H](NC(=O)CCCCCCCCCCCCCCCCC(=O)O)C(=O)O)C(C)C)[C@@H](C)O)C(=O)N[C@@H](CC(N)=O)C(=O)N[C@@H](CCSC)C(=O)N[C@@H](CC(C)C)C(=O)N[C@H](C(=O)N[C@@H](CCCNC(=N)N)C(=O)N1CCC[C@H]1C(=O)N[C@@H](CCCNC(=N)N)C(=O)N[C@@H](Cc1ccc(O)cc1)C(N)=O)[C@@H](C)O [Compound AF] the half-life was 33 h.
Work on CC[C@H](C)[C@H](NC(=O)[C@H](Cc1ccc(O)cc1)NC(=O)[C@H](CCCNC(=N)N)NC(=O)[C@H](CCCNC(=N)N)NC(=O)[C@H](CC(C)C)NC(=O)[C@H](CC(=O)O)NC(=O)[C@H](C)NC(=O)[C@H](C)NC(=O)[C@H](Cc1ccc(O)cc1)NC(=O)[C@H](CCC(N)=O)NC(=O)[C@H](C)NC(=O)[C@H](CCSC)NC(=O)[C@H](CCC(N)=O)NC(=O)[C@H](CCC(=O)O)NC(=O)[C@@H]1CCCN1C(=O)[C@@H](NC(=O)[C@H](C)NC(=O)[C@H](CC(N)=O)NC(=O)[C@H](CC(=O)O)NC(=O)CNC(=O)[C@@H]1CCCN1C(=O)[C@H](Cc1ccc(O)cc1)NC(=O)[C@@H](NC(=O)[C@@H]1CCCN1C(=O)[C@H](CCC(=O)O)NC(=O)[C@@H](N)CC(C)C)C(C)C)[C@@H](C)O)C(=O)N[C@@H](CC(N)=O)C(=O)N[C@@H](CCSC)C(=O)N[C@@H](CC(C)C)C(=O)N[C@@H](CCCCNC(=O)COCCOCCNC(=O)COCCOCCNC(=O)CC[C@H](NC(=O)CCCCCCCCCCCCCCCCC(=O)O)C(=O)O)C(=O)N[C@@H](CCCNC(=N)N)C(=O)N1CCC[C@H]1C(=O)N[C@@H](CCCNC(=N)N)C(=O)N[C@@H](Cc1ccc(O)cc1)C(N)=O [Compound AJ] (H-LEPVYPGDNATPEQMAQYAADLRRYINMLK([AEEA-AEEA-γGlu-C18 diacid])RPRY-NH2; N-terminus and C-terminus assumed) yielded a half-life of 80 h.
CC[C@H](C)[C@H](NC(=O)[C@H](Cc1ccc(O)cc1)NC(=O)[C@H](CCCNC(=N)N)NC(=O)[C@H](CCCNC(=N)N)NC(=O)[C@H](CC(C)C)NC(=O)[C@H](CC(=O)O)NC(=O)[C@H](C)NC(=O)[C@H](C)NC(=O)[C@H](Cc1ccc(O)cc1)NC(=O)[C@H](CCC(N)=O)NC(=O)[C@H](C)NC(=O)[C@H](CCSC)NC(=O)[C@H](CCC(N)=O)NC(=O)[C@H](CCC(=O)O)NC(=O)[C@@H]1CCCN1C(=O)[C@@H](NC(=O)[C@H](C)NC(=O)[C@H](CC(N)=O)NC(=O)[C@H](CC(=O)O)NC(=O)CNC(=O)[C@@H]1CCCN1C(=O)[C@H](Cc1ccc(O)cc1)NC(=O)[C@@H](NC(=O)[C@@H]1CCCN1C(=O)[C@H](CCC(=O)O)NC(=O)[C@@H](N)CC(C)C)C(C)C)[C@@H](C)O)C(=O)N[C@@H](CC(N)=O)C(=O)N[C@@H](CCSC)C(=O)N[C@@H](CCCCNC(=O)COCCOCCNC(=O)COCCOCCNC(=O)CC[C@H](NC(=O)CCCCCCCCCCCCCCCCC(=O)O)C(=O)O)C(=O)N[C@H](C(=O)N[C@@H](CCCNC(=N)N)C(=O)N1CCC[C@H]1C(=O)N[C@@H](CCCNC(=N)N)C(=O)N[C@@H](Cc1ccc(O)cc1)C(N)=O)[C@@H](C)O [Compound AK] (H-LEPVYPGDNATPEQMAQYAADLRRYINMK([AEEA-AEEA-γGlu-C18 diacid])TRPRY-NH2; N-terminus and C-terminus assumed) gave a half-life of 80 h.
With CC[C@H](C)[C@H](NC(=O)[C@H](Cc1ccc(O)cc1)NC(=O)[C@H](CCCNC(=N)N)NC(=O)[C@H](CCCNC(=N)N)NC(=O)[C@H](CC(C)C)NC(=O)[C@H](CC(=O)O)NC(=O)[C@H](C)NC(=O)[C@H](C)NC(=O)[C@H](Cc1ccc(O)cc1)NC(=O)[C@H](CCC(N)=O)NC(=O)[C@H](C)NC(=O)[C@H](CCSC)NC(=O)[C@H](CCC(N)=O)NC(=O)[C@H](CCC(=O)O)NC(=O)[C@@H]1CCCN1C(=O)[C@@H](NC(=O)[C@H](C)NC(=O)[C@H](CC(N)=O)NC(=O)[C@H](CC(=O)O)NC(=O)CNC(=O)[C@@H]1CCCN1C(=O)[C@H](Cc1ccc(O)cc1)NC(=O)[C@@H](NC(=O)[C@@H]1CCCN1C(=O)[C@H](CCC(=O)O)NC(=O)[C@@H](N)CC(C)C)C(C)C)[C@@H](C)O)C(=O)N[C@@H](CC(N)=O)C(=O)N[C@@H](CCCCNC(=O)COCCOCCNC(=O)COCCOCCNC(=O)CC[C@H](NC(=O)CCCCCCCCCCCCCCCCC(=O)O)C(=O)O)C(=O)N[C@@H](CC(C)C)C(=O)N[C@H](C(=O)N[C@@H](CCCNC(=N)N)C(=O)N1CCC[C@H]1C(=O)N[C@@H](CCCNC(=N)N)C(=O)N[C@@H](Cc1ccc(O)cc1)C(N)=O)[C@@H](C)O [Compound AL] (H-LEPVYPGDNATPEQMAQYAADLRRYINK([AEEA-AEEA-γGlu-C18 diacid])LTRPRY-NH2; N-terminus and C-terminus assumed) the half-life was 59 h.
With CC[C@H](C)[C@H](NC(=O)[C@H](Cc1ccc(O)cc1)NC(=O)[C@H](CCCNC(=N)N)NC(=O)[C@H](CCCNC(=N)N)NC(=O)[C@H](CC(C)C)NC(=O)[C@H](CC(=O)O)NC(=O)[C@H](C)NC(=O)[C@H](C)NC(=O)[C@H](Cc1ccc(O)cc1)NC(=O)[C@H](CCC(N)=O)NC(=O)[C@H](C)NC(=O)[C@H](CCSC)NC(=O)[C@H](CCC(N)=O)NC(=O)[C@H](CCC(=O)O)NC(=O)[C@@H]1CCCN1C(=O)[C@@H](NC(=O)[C@H](C)NC(=O)[C@H](CC(N)=O)NC(=O)[C@H](CC(=O)O)NC(=O)CNC(=O)[C@@H]1CCCN1C(=O)[C@H](Cc1ccc(O)cc1)NC(=O)[C@@H](NC(=O)[C@@H]1CCCN1C(=O)[C@H](CCC(=O)O)NC(=O)[C@@H](N)CC(C)C)C(C)C)[C@@H](C)O)C(=O)N[C@@H](CCCCNC(=O)COCCOCCNC(=O)COCCOCCNC(=O)CC[C@H](NC(=O)CCCCCCCCCCCCCCCCC(=O)O)C(=O)O)C(=O)N[C@@H](CCSC)C(=O)N[C@@H](CC(C)C)C(=O)N[C@H](C(=O)N[C@@H](CCCNC(=N)N)C(=O)N1CCC[C@H]1C(=O)N[C@@H](CCCNC(=N)N)C(=O)N[C@@H](Cc1ccc(O)cc1)C(N)=O)[C@@H](C)O [Compound AM] (H-LEPVYPGDNATPEQMAQYAADLRRYIK([AEEA-AEEA-γGlu-C18 diacid])MLTRPRY-NH2; N-terminus and C-terminus assumed) the half-life was 70 h.
